{
  "source": "patent US10912771B1",
  "about": "“Methods for the administration of certain VMAT2 inhibitors” (Neurocrine Biosciences, Inc., priority 2017, dated 2021)",
  "key": {"[1]": {"molecular_target": "Dopamine D2(s) (Homo sapiens, UniProt P14416)", "sequence (P14416 1-414 isoform P14416-2)": "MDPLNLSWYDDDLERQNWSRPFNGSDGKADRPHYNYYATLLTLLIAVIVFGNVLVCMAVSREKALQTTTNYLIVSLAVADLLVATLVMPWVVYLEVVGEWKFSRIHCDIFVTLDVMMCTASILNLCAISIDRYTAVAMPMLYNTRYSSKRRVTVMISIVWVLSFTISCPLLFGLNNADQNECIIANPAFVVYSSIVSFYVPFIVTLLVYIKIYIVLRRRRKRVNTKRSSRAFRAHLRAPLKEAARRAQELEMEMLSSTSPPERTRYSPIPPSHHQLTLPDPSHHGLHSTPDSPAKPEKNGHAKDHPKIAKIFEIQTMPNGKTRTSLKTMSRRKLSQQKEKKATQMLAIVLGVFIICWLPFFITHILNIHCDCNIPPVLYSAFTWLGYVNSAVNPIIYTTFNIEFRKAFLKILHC", "assay": "Cerep screen, Dopamine D2(s)", "conditions": "radioligand binding assays and broad panel screen"}, "[2]": {"molecular_target": "Dopamine D1 (Homo sapiens, UniProt P21728)", "sequence (P21728 whole entry)": "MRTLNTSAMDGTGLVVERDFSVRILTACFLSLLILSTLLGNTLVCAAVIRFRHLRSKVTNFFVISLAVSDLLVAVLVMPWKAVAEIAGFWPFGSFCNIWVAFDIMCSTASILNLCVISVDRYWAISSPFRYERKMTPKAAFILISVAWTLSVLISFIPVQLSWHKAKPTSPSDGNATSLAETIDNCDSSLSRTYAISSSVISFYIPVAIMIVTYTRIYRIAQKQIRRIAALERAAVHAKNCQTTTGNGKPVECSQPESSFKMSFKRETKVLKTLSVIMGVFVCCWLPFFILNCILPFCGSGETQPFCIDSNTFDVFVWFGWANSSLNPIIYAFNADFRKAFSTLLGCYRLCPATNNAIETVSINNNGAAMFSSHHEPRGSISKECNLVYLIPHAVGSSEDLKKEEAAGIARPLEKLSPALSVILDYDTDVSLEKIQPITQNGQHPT", "assay": "Cerep screen, Dopamine D1", "conditions": "radioligand binding assays and broad panel screen"}, "[3]": {"molecular_target": "T1, human VMAT1 transporter (Homo sapiens, UniProt P54219)", "T1 construct": "expressed in transfected cells", "T1 sequence (P54219 1-525)": "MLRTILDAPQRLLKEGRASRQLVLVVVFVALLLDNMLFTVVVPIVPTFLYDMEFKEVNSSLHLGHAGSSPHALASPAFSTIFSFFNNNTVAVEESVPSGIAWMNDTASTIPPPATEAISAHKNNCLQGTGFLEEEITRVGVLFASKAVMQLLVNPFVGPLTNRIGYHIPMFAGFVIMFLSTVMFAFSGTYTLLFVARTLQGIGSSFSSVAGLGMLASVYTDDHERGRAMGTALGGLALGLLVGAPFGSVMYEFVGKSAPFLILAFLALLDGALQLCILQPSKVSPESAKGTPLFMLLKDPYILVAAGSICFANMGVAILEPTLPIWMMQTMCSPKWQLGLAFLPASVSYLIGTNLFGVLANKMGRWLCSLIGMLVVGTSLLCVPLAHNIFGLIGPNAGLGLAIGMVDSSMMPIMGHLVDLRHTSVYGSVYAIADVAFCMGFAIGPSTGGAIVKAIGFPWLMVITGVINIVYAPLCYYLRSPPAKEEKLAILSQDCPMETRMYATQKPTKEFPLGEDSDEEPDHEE", "assay": "Uptake in cells expressing VMAT1", "type": "cell-based", "conditions": "TBZ, VBZ and metabolites at concentrations up to 10 μM, listed as VBZ"}, "[4]": {"assay": "Ptosis, in vivo surrogate measure of pharmacological effect"}, "[5]": {"assay": "Phase 1 drug-interaction study: safety, treatment-emergent adverse events", "type": "in vivo, human", "experimental": "(§1) Subjects received a single dose of 80 mg valbenazine tosylate on Days 1 and 11 between 0800 and 1000 hours. In addition, subjects received 600 mg rifampin (300 mg×2 capsules) once daily on Days 5 (after collection of the 96-hour PK sample) through 14 between 0830 and 1030 hours. Subjects were required to fast overnight before receiving the study drugs (valbenazine tosylate and rifampin). Subjects were discharged from the study center on Day 15 (final study day or upon early termination) after all safety evaluations and study assessments had been completed.\n(§2) An analysis of variance (ANOVA) model was used to compare AUC0-∞ and Cmax for NBI-98854 administered with rifampin (“test”) versus AUC0-∞ and Cmax for NBI-98854 alone (“reference”). The PK parameters for metabolites of NBI-98854 and rifampin were also evaluated. Safety data were summarized using descriptive statistics."}, "[6]": {"molecular_target": "T2, Serotonin 5-HT1A (Homo sapiens, UniProt P08908)", "T2 sequence (P08908 1-422)": "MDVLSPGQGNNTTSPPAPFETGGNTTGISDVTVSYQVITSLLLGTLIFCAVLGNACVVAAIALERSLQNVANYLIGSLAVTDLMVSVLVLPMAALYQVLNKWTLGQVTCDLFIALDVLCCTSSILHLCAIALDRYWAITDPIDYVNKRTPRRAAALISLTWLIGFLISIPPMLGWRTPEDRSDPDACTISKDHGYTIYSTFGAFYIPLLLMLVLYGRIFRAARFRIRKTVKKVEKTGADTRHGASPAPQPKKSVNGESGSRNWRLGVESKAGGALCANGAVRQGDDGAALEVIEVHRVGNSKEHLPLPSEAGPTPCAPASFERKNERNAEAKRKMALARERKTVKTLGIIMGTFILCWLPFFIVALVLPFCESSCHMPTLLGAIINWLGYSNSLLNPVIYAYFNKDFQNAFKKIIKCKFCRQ", "assay": "Cerep screen, Serotonin 5-HT1A", "conditions": "1 or 10 μM final concentration; n=2"}, "[7]": {"test_system": "more than 80 targets (GPCRs, cell-surface monoamine transporters, ion channels including HERG)", "assay": "Cerep multi-target activity screen", "conditions": "receptors, monoamine transporters, and ion channels"}, "[8]": {"molecular_target": "T3, VMAT2 (Homo sapiens, UniProt Q05940)", "T3 construct": "from tissue; host or cells: human platelets (homogenates)", "T3 sequence (Q05940 whole entry)": "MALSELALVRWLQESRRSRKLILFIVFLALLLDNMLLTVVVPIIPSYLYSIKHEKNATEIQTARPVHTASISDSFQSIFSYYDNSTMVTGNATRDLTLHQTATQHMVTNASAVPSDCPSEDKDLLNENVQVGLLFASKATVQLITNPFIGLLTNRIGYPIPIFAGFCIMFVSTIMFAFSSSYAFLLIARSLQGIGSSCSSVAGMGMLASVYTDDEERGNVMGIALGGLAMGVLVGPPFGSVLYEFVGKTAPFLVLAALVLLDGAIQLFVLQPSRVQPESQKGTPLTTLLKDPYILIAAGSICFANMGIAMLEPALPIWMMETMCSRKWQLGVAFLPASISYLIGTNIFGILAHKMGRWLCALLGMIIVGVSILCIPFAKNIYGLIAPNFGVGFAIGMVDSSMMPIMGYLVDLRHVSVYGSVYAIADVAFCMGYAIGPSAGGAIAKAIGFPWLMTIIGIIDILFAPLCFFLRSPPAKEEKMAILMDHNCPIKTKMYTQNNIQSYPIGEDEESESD", "assay": "Inhibition of [3H]-DHTBZ binding to human platelets"}, "[9]": {"molecular_target": "Serotonin 5-HT7 (Homo sapiens, UniProt P34969)", "sequence (P34969 whole entry)": "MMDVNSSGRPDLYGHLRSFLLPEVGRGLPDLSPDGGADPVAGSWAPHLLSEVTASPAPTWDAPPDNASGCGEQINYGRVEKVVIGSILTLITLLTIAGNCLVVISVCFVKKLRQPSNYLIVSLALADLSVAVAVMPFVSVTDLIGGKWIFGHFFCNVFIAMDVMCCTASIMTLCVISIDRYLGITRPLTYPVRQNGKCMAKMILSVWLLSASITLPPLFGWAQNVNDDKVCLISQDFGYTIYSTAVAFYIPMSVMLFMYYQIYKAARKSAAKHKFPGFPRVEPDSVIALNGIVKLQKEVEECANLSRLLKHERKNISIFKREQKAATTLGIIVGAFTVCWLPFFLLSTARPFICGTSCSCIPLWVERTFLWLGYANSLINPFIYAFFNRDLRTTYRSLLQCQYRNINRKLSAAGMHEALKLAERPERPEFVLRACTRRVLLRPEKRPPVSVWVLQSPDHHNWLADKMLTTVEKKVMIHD", "assay": "Cerep screen, Serotonin 5-HT7", "conditions": "1 or 10 μM final concentration; n=2"}, "[10]": {"assay": "Phase 1 open-label one-sequence crossover drug-interaction study: plasma pharmacokinetics of NBI-98854 and metabolites with and without rifampin", "type": "in vivo, human", "conditions": "for CL/F / AUC(0-inf) / Cmax / MRT / Tmax / AUC(0-t) / t1/2: N = 11; for CL/F / AUC(0-inf) / Cmax / MRT / AUC(0-t) / t1/2: Mean (SD); for half-life / AUC(0-inf) / Cmax / MRT / Tmax / AUC(0-t): both sexes, human, oral; for half-life: read-out: Mean t1/2 (converted); for AUC(0-inf) / Cmax / MRT / Tmax / AUC(0-t) / t1/2: plasma NBI-98854; for Tmax: Median (mm, max), read-out: tmax; for AUC(0-t): plasma", "experimental": "as §1\nSafety was assessed throughout the study.\nNBI-98854 40 mg capsules were administered orally. The dose of NBI-98854 was based on ditosylate salt (dose expressed as free base). Subjects received a single dose of NBI-98854 80 mg (as two 40 mg capsules) twice during the study, on Days 1 and 11.\nRifampin 300 mg capsules were administered orally. Subjects received a single dose of rifampin 600 mg (as two 300 mg capsules) on Days 5 (after collection of the 96 hour NBI-98854 PK sample) through 14 between 0830 and 1030 hours.\nThe following plasma PK parameters were calculated only for NBI-98854: • Apparent systemic clearance after oral administration (CL/F) • Apparent volume of distribution during the terminal phase after oral administration (Vz/F)\nThe last significant figure was rounded up if the digit to the right of it was >5, and was rounded down if the digit to the right of it was […].\nThe last significant figure was rounded up if the digit to the right of it was ≥5, and was rounded down if the digit to the right of it was ≤4.\nas §2"}, "[11]": {"test_system": "CYP enzymes", "conditions": "human"}, "[12]": {"conditions": "Safety Analysis Set, healthy subjects, by treatment period"}, "[13]": {"conditions": "NBI-98854 80 mg + rifampin 600 mg"}, "[14]": {"conditions": "plasma analyte, NBI-98854 plus rifampin compared with NBI-98854 alone"}},
  "note": "Entries after “also recorded” stand apart in the source; their conditions may differ. Like-named read-outs stand apart in the source and are kept apart here.",
  "data": [
    {"compound": "COc1cc2c(cc1OC)[C@@H]1C[C@H](O)[C@@H](CC(C)C)CN1CC2", "note": "[S,S,S-DHTBZ]", "values": [
      {"measurement": "interaction with D2 receptors", "setting": "[1]", "result": "interact with D1 and D2 receptors"},
      {"measurement": "interaction with D1 receptors", "setting": "[2]", "result": "interact with D1 and D2 receptors"}
    ]},
    {"compound": "COc1cc2c(cc1OC)[C@@H]1C[C@@H](O)[C@@H](CC(C)C)CN1CC2", "note": "[R,S,S-DHTBZ]", "values": [
      {"measurement": "interaction with D2 receptors", "setting": "[1]", "result": "interact with D1 and D2 receptors"},
      {"measurement": "interaction with D1 receptors", "setting": "[2]", "result": "interact with D1 and D2 receptors"}
    ]},
    {"compound": "COc1cc2c(cc1OC)[C@H]1C[C@@H](OC(=O)[C@@H](N)C(C)C)[C@H](CC(C)C)CN1CC2", "note": "[NBI-98854, (S)-2-amino-3-methyl-butyric acid (2R, 3R,11bR)-3-isobutyl-9,10-dimethoxy-1,3,4,6,7,11b-hexahydro-2H-pyrido[2,1-a]isoquinolin-2-yl ester]", "values": [
      {"measurement": "inhibition of uptake through VMAT1", "setting": "[3]", "result": "no significant inhibitory activity; also recorded: no significant effect"},
      {"measurement": "induction of ptosis", "setting": "[4]", "result": "induced ptosis in an equivalent manner"},
      {"measurement": "Tolerability", "setting": "[5]; 80 mg in healthy subjects, alone or concomitantly with rifampin", "result": "well tolerated"},
      {"measurement": "Subjects who experienced a TEAE: Overall", "setting": "[5]; [12]", "result": "6 (50.0) n (%)"},
      {"measurement": "TEAE: Abdominal pain", "setting": "[5]; [12]", "result": "1 (8.3) n (%)"},
      {"measurement": "TEAE: Abdominal pain upper", "setting": "[5]; [12]", "result": "0 n (%)"},
      {"measurement": "TEAE: Arthropod bite", "setting": "[5]; [12]", "result": "1 (8.3) n (%)"},
      {"measurement": "TEAE: Chromaturia", "setting": "[5]; [12]", "result": "0 n (%)"},
      {"measurement": "TEAE: Headache", "setting": "[5]; [12]", "result": "3 (25.0) n (%)"},
      {"measurement": "TEAE: Hypoaesthesia", "setting": "[5]; [12]", "result": "0 n (%)"},
      {"measurement": "TEAE: Non-cardiac chest pain", "setting": "[5]; [12]", "result": "0 n (%)"},
      {"measurement": "TEAE: Paraesthesia", "setting": "[5]; [12]", "result": "0 n (%)"},
      {"measurement": "TEAE: Vessel puncture site haemorrhage", "setting": "[5]; [12]", "result": "1 (8.3) n (%)"},
      {"measurement": "percent of control specific binding, Serotonin 5-HT1A", "setting": "[6]", "result": 26, "unit": "%"},
      {"measurement": "affinity for more than 80 binding sites", "setting": "[7]", "result": "little to no affinity"},
      {"measurement": "Affinity Relative to R,R,R-DHTBZ", "setting": "[8]", "result": 45},
      {"measurement": "pKi mean (SEM)", "setting": "[8]; n=4", "result": "6.82 (0.02)"},
      {"measurement": "percent of control specific binding, Serotonin 5-HT7", "setting": "[9]", "result": 4, "unit": "%"},
      {"measurement": "CL/F", "setting": "[10]; [13]", "result": "50.3 (11.4) L/hr"},
      {"measurement": "CL/F", "setting": "[10]; NBI-98854 80 mg alone", "result": "13.8 (2.77) L/hr"},
      {"measurement": "half-life", "setting": "[10]; 80 mg, plasma analyte, NBI-98854 alone", "result": 16, "unit": "h"},
      {"measurement": "AUC(0-inf)", "setting": "[10]; [13]", "result": 1700, "unit": "ng·h/mL"},
      {"measurement": "Cmax", "setting": "[10]; [13]", "result": 542, "unit": "ng/mL"},
      {"measurement": "MRT", "setting": "[10]; [13]", "result": 8.7, "unit": "h"},
      {"measurement": "Tmax", "setting": "[10]; [13]", "result": 0.75, "unit": "h"},
      {"measurement": "AUC(0-inf)", "setting": "[10]; NBI-98854 80 mg alone", "result": 6020, "unit": "ng·h/mL"},
      {"measurement": "Cmax", "setting": "[10]; NBI-98854 80 mg alone", "result": 795, "unit": "ng/mL"},
      {"measurement": "MRT", "setting": "[10]; NBI-98854 80 mg alone", "result": 17, "unit": "h"},
      {"measurement": "Tmax", "setting": "[10]; NBI-98854 80 mg alone", "result": 0.75, "unit": "h"},
      {"measurement": "half-life", "setting": "[10]; plasma analyte, NBI-98854 administered with rifampin", "result": 10, "unit": "h"},
      {"measurement": "AUC(0-t)", "setting": "[10]; 80 mg, NBI-98854 80 mg alone, read-out: AUC0-24", "result": 4480, "unit": "ng·h/mL"},
      {"measurement": "AUC(0-t)", "setting": "[10]; 80 mg, NBI-98854 80 mg alone, read-out: AUC0-tlast", "result": 5930, "unit": "ng·h/mL"},
      {"measurement": "AUC(0-t)", "setting": "[10]; NBI-98854 80 mg + rifampin 600 mg, read-out: AUC0-24", "result": 1510, "unit": "ng·h/mL"},
      {"measurement": "AUC(0-t)", "setting": "[10]; NBI-98854 80 mg + rifampin 600 mg, read-out: AUC0-tlast", "result": 1670, "unit": "ng·h/mL"},
      {"measurement": "t1/2", "setting": "[10]; [13]", "result": "10 (2.1) hours"},
      {"measurement": "t1/2", "setting": "[10]; NBI-98854 80 mg alone", "result": "16 (2.3) hours"},
      {"measurement": "decrease in AUC0-∞", "setting": "[10]; [14]", "result": "~70", "unit": "%"},
      {"measurement": "decrease in Cmax", "setting": "[10]; [14]", "result": "~30", "unit": "%"},
      {"measurement": "enzymes involved in oxidative metabolism", "setting": "[11]", "result": "CYP3A4/5 is the major enzyme"}
    ]}
  ]
}
